# According to PubChem BioAssay AID248 (DTP/NCI, 2004):
# “And” between values parts separate entries of the source, which are not always exact repeats. Equal values may be shown once. Inconclusive results and toxic doses are left out.
# Test system: L1210 leukemia ip in BDF1 mice, survival T/C
# Assay: NCI In Vivo Anticancer Drug Screen. Data for tumor model L1210 Leukemia (intraperitoneal) in B6D2F1 (BDF1) mice
# Settings: endpoint: mean survival time, higher = longer survival
# Outline: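 Ratio derived from survival: compound-dosed mice over vehicle-dosed mice, all bearing a transplantable tumor.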
# [1] = dose: 100.0 mg/kg/injection, schedule: Q01DX009 (ip), vehicle: saline with Tween-80
# [2] = dose: 200.0 mg/kg/injection, schedule: Q01DX009 (ip), vehicle: saline with Tween-80
# [3] = dose: 400.0 mg/kg/injection, schedule: Q01DX009 (ip), vehicle: saline with Tween-80
# [4] = dose: 100.0 mg/kg/injection, schedule: Q01DX001 (ip), vehicle: saline
# [5] = dose: 100.0 mg/kg/injection, schedule: Q01DX009 (ip), vehicle: saline
# [6] = dose: 200.0 mg/kg/injection, schedule: Q01DX001 (ip), vehicle: saline
# [7] = dose: 50.0 mg/kg/injection, schedule: Q01DX001 (ip), vehicle: Klucel (hydroxypropylcellulose) (HPC)
# [8] = dose: 100.0 mg/kg/injection, schedule: Q01DX001 (ip), vehicle: Klucel (hydroxypropylcellulose) (HPC)
# [9] = dose: 200.0 mg/kg/injection, schedule: Q01DX001 (ip), vehicle: Klucel (hydroxypropylcellulose) (HPC)
# [10] = dose: 25.0 mg/kg/injection, schedule: Q01DX009 (ip), vehicle: saline with Tween-80
# [11] = dose: 25.0 mg/kg/injection, schedule: Q04DX003 (ip), vehicle: saline with Tween-80
# [12] = dose: 100.0 mg/kg/injection, schedule: Q04DX003 (ip), vehicle: saline with Tween-80
# [13] = dose: 200.0 mg/kg/injection, schedule: Q04DX003 (ip), vehicle: saline with Tween-80
# [14] = dose: 400.0 mg/kg/injection, schedule: Q04DX003 (ip), vehicle: saline with Tween-80
structure (smiles),measurement,setting,value
COc1ccc(/C=C/C(=O)c2ccc(OC)c(OC)c2)cc1OC,T/C,[1],100 % of control
same,T/C,[2],105 % of control
same,T/C,[3],102 % of control
CCCCCCCCCCCCOCCCCCCCCCCCC,T/C,"dose: 100.0 mg/kg/injection, schedule: Q01DX009 (sc), vehicle: olive oil, sesame oil, peanut oil",104 % of control
same,T/C,"dose: 100.0 mg/kg/injection, schedule: Q04DX003 (sc), vehicle: olive oil, sesame oil, peanut oil",114 % of control
same,T/C,"dose: 200.0 mg/kg/injection, schedule: Q01DX009 (sc), vehicle: olive oil, sesame oil, peanut oil",100 % of control
same,T/C,"dose: 200.0 mg/kg/injection, schedule: Q04DX003 (sc), vehicle: olive oil, sesame oil, peanut oil",106 % of control
same,T/C,"dose: 400.0 mg/kg/injection, schedule: Q01DX009 (sc), vehicle: olive oil, sesame oil, peanut oil",102 % of control
same,T/C,"dose: 400.0 mg/kg/injection, schedule: Q04DX003 (sc), vehicle: olive oil, sesame oil, peanut oil",104 % of control
CCSCN(C)C,T/C,"dose: 50.0 mg/kg/injection, schedule: Q01DX009 (ip), vehicle: saline",102 % of control
same,T/C,"dose: 50.0 mg/kg/injection, schedule: Q04DX003 (ip), vehicle: saline",97 % of control
same,T/C,[4],113 % of control
same,T/C,[5],101 % of control
same,T/C,"dose: 100.0 mg/kg/injection, schedule: Q04DX003 (ip), vehicle: saline",103 % of control
same,T/C,[6],97 % of control
same,T/C,"dose: 200.0 mg/kg/injection, schedule: Q04DX003 (ip), vehicle: saline",105 % of control
Cc1ccc(-n2c(O)c(N=Nc3ccc(Br)cc3)c(=O)n(-c3ccccc3)c2=S)cc1,T/C,[7],97 % of control
same,T/C,[8],111 % of control
same,T/C,[9],94 % of control
N#CSc1ccc(NN)cc1,T/C,"dose: 3.0 mg/kg/injection, schedule: Q01DX009 (ip), vehicle: saline with Tween-80",97 % of control
same,T/C,"dose: 6.0 mg/kg/injection, schedule: Q01DX009 (ip), vehicle: saline with Tween-80",90 % of control
same,T/C,"dose: 6.0 mg/kg/injection, schedule: Q04DX004 (ip), vehicle: saline with Tween-80",100 % of control
same,T/C,"dose: 12.0 mg/kg/injection, schedule: Q01DX009 (ip), vehicle: saline with Tween-80",95 % of control
same,T/C,"dose: 12.0 mg/kg/injection, schedule: Q04DX004 (ip), vehicle: saline with Tween-80",98 % of control
same,T/C,[10],96 % of control
same,T/C,[11],93 % of control
same,T/C,"dose: 25.0 mg/kg/injection, schedule: Q04DX004 (ip), vehicle: saline with Tween-80",102 % of control
O=C(O)C1CCCCC1C(=O)Nc1ccc(F)cc1 (configuration not stated),T/C,[1],103 % of control
same,T/C,[12],102 % of control
same,T/C,[2],90 % of control
same,T/C,[13],102 % of control
same,T/C,[3],105 % of control
same,T/C,[14],96 % of control
O=C1C=CC2=Nc3ccccc3CCC2=C1,T/C,"dose: 75.0 mg/kg/injection, schedule: Q01DX001 (ip), vehicle: steriod suspending solution",93 % of control
same,T/C,"dose: 150.0 mg/kg/injection, schedule: Q01DX001 (ip), vehicle: steriod suspending solution",93 % of control
same,T/C,"dose: 300.0 mg/kg/injection, schedule: Q01DX001 (ip), vehicle: steriod suspending solution",92 % of control
CC(C)OCCS(=O)(=O)Oc1ncc(Cl)cc1Cl,T/C,"dose: 12.5 mg/kg/injection, schedule: Q01DX009 (ip), vehicle: saline with Tween-80",113 % of control
same,T/C,[10],94 % of control
same,T/C,"dose: 50.0 mg/kg/injection, schedule: Q01DX009 (ip), vehicle: saline with Tween-80",96 % of control
same,T/C,[12],94 % of control
same,T/C,[13],96 % of control
same,T/C,[3],90 % of control
same,T/C,[14],94 % of control
CSCC(NC(C)=O)C(=O)O (configuration not stated),T/C,[7],100 % of control
same,T/C,[8],98 % of control
same,T/C,[9],91 % of control
Cc1ccc(NC(=O)c2cccc(C(=O)Nc3ccc(C)cc3C)c2)c(C)c1,T/C,"dose: 12.5 mg/kg/injection, schedule: Q04DX003 (ip), vehicle: saline with Tween-80",98 % of control
same,T/C,[11],98 % of control
same,T/C,"dose: 50.0 mg/kg/injection, schedule: Q04DX003 (ip), vehicle: saline with Tween-80",93 % of control
same,T/C,[13],87 % of control
CC(CCC(=O)O)([N+](=O)[O-])[N+](=O)[O-],T/C,[8],98 % of control
same,T/C,[9],102 % of control
same,T/C,"dose: 400.0 mg/kg/injection, schedule: Q01DX001 (ip), vehicle: Klucel (hydroxypropylcellulose) (HPC)",98 % of control
N#C/C(=C\c1cc(Cl)ccc1O)C1CCC([N+](=O)[O-])CC1 (configuration not stated),T/C,"dose: 100.0 mg/kg/injection, schedule: Q04DX002 (ip), vehicle: saline with Tween-80",98 % of control
same,T/C,"dose: 200.0 mg/kg/injection, schedule: Q04DX002 (ip), vehicle: saline with Tween-80",113 % of control
same,T/C,"dose: 400.0 mg/kg/injection, schedule: Q04DX002 (ip), vehicle: saline with Tween-80",106 % of control
CC1(C)CCCC2(C)C(C(=O)O)C3CCC45OC3(CC12)OC(=O)C4C1(C)CCCC(C)(C)C1CC5=O (configuration not stated),T/C,[4],101 % of control
same,T/C,[6],107 % of control
same,T/C,"dose: 400.0 mg/kg/injection, schedule: Q01DX001 (ip), vehicle: saline",109 % of control
COC(OC)c1[nH]c(=S)[nH]c(=O)c1Cc1cccc(Cl)c1,T/C,[5],100 % of control
same,T/C,"dose: 400.0 mg/kg/injection, schedule: Q01DX009 (ip), vehicle: saline",113 % of control
c1ccc([C@H]2CN3CCSC3=N2)cc1,T/C,"dose: 0.15 mg/kg/injection, schedule: Q01DX009 (ip), vehicle: saline",94 % of control
same,T/C,"dose: 0.31 mg/kg/injection, schedule: Q01DX009 (ip), vehicle: saline",91 % of control
same,T/C,"dose: 0.63 mg/kg/injection, schedule: Q01DX009 (ip), vehicle: saline",105 % of control
same,T/C,"dose: 1.25 mg/kg/injection, schedule: Q01DX009 (ip), vehicle: saline",96 % of control
same,T/C,"dose: 2.5 mg/kg/injection, schedule: Q01DX009 (ip), vehicle: saline",98 % of control
same,T/C,"dose: 5.0 mg/kg/injection, schedule: Q01DX009 (ip), vehicle: saline",109 % of control
same,T/C,"dose: 10.0 mg/kg/injection, schedule: Q01DX009 (ip), vehicle: saline",93 % of control
same,T/C,"dose: 20.0 mg/kg/injection, schedule: Q01DX009 (ip), vehicle: saline",94 % of control
CCCCCCCC(=O)NN,T/C,"dose: 25.0 mg/kg/injection, schedule: Q01DX009 (ip), vehicle: other",104 % of control
same,T/C,"dose: 50.0 mg/kg/injection, schedule: Q01DX009 (ip), vehicle: carboxymethylcellulose (CMC)",89 % of control
same,T/C,"dose: 50.0 mg/kg/injection, schedule: Q01DX009 (ip), vehicle: other",93 % of control
same,T/C,"dose: 100.0 mg/kg/injection, schedule: Q01DX001 (ip), vehicle: carboxymethylcellulose (CMC)",117 % of control
same,T/C,"dose: 100.0 mg/kg/injection, schedule: Q01DX009 (ip), vehicle: carboxymethylcellulose (CMC)",86 % of control
same,T/C,"dose: 100.0 mg/kg/injection, schedule: Q01DX009 (ip), vehicle: other",98 % of control
same,T/C,"dose: 200.0 mg/kg/injection, schedule: Q01DX001 (ip), vehicle: carboxymethylcellulose (CMC)",97 % of control
same,T/C,"dose: 200.0 mg/kg/injection, schedule: Q01DX009 (ip), vehicle: other",107 % of control
same,T/C,"dose: 400.0 mg/kg/injection, schedule: Q01DX001 (ip), vehicle: carboxymethylcellulose (CMC)",95 % of control
same,T/C,"dose: 400.0 mg/kg/injection, schedule: Q01DX009 (ip), vehicle: other",98 % of control
CCN=C(c1ccc(NC(=O)c2ccc(C(=O)Nc3ccc(C(=NCC)N(CC)C(=O)C(F)(F)C(F)(F)C(F)(F)F)cc3)cc2)cc1)N(CC)C(=O)C(F)(F)C(F)(F)C(F)(F)F,T/C,"dose: 1.5 mg/kg/injection, schedule: Q01DX015 (ip), vehicle: methylcellulose (MC)",96 % of control
same,T/C,"dose: 3.0 mg/kg/injection, schedule: Q01DX015 (ip), vehicle: methylcellulose (MC)",113 % of control
same,T/C,"dose: 7.5 mg/kg/injection, schedule: Q01DX015 (ip), vehicle: methylcellulose (MC)",153 % of control
same,T/C,"dose: 12.0 mg/kg/injection, schedule: Q01DX015 (ip), vehicle: methylcellulose (MC)",124 % of control
Cc1cc(=O)c(CCl)n[nH]1,T/C,"dose: 25.0 mg/kg/injection, schedule: Q01DX009 (ip), vehicle: Klucel (hydroxypropylcellulose) (HPC)",115 % of control
same,T/C,"dose: 25.0 mg/kg/injection, schedule: Q04DX003 (ip), vehicle: Klucel (hydroxypropylcellulose) (HPC)",120 % of control
same,T/C,"dose: 50.0 mg/kg/injection, schedule: Q04DX003 (ip), vehicle: Klucel (hydroxypropylcellulose) (HPC)",116 % of control
same,T/C,"dose: 100.0 mg/kg/injection, schedule: Q04DX003 (ip), vehicle: Klucel (hydroxypropylcellulose) (HPC)",97 % of control and 89 % of control
